Key:
PTRGER4 (EP4) = PTRGER4 (EP4) (Homo sapiens (Human), UniProt P35408); assay: hEP4 b-arrestin assay (PathHunter HEK 293 PTGER4 b-arrestin cells); type: cell-based; settings: hEP4 b-arrestin assay (values without asterisk)
Method in brief: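 Stably transfected HEK293 cells carrying EP4–ProLink and β-arrestin 2–EA (β-gal fragment complementation), pre-incubated with compound 15 min at 37 °C, then stimulated with PGE2 (20 nM final) for 120 min at 37 °C. Chemiluminescence read after 1 h detection reagent at room temperature; activity per concentration expressed as percent of DMSO control.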

PTGER2 (EP2) = PTGER2 (EP2) (Homo sapiens (Human), UniProt P43116); assay: hEP2 b-arrestin assay (PathHunter HEK 293 PTGER2 b-arrestin cells); type: cell-based; settings: hEP2 b-arrestin assay (values without asterisk)
Method in brief: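 HEK293 cells expressing ProLink-tagged EP2 and EA-fused β-arrestin 2 (enzyme fragment complementation) were seeded 24 h, pre-incubated with compound 15 min at 37 °C, then stimulated with 5 μM PGE2 (final) for 120 min.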

Chain of PTGER2 (EP2) (P43116 whole entry, the tested form may be a part): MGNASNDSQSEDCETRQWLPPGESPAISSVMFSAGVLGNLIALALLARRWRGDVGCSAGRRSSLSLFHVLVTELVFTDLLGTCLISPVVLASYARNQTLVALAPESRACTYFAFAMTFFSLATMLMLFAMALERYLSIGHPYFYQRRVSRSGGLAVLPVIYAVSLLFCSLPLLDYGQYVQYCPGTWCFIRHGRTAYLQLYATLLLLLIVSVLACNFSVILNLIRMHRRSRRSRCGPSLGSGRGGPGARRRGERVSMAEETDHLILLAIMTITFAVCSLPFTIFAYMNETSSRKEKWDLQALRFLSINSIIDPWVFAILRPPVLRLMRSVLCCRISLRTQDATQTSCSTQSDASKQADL
Chain of PTRGER4 (EP4) (P35408 whole entry, looked up, the tested form may be a part): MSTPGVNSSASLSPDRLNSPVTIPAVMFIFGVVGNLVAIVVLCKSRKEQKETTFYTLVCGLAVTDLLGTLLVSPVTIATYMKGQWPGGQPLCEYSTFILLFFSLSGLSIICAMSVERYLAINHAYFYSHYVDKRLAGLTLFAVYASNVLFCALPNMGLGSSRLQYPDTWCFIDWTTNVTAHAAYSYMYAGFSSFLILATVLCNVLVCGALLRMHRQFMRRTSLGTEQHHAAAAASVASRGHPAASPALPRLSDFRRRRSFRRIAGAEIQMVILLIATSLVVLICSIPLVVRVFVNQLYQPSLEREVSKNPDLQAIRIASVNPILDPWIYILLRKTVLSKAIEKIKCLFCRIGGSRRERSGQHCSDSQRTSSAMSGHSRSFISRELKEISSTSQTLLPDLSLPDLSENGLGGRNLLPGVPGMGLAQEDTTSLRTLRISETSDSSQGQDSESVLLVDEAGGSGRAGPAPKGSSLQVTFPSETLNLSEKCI

SMILES | IC50 (PTRGER4 (EP4)) [nM] | IC50 (PTGER2 (EP2)) [nM]
CCOc1cc(-c2cc(NCCn3c(C#N)cc4c(Cl)cccc43)ncn2)sc1C(=O)O [Example 909, 5-{6-[2-(4-Chloro-2-cyano-indol-1-yl)-ethylamino]-pyrimidin-4-yl}-3-ethoxy-thiophene-2-carboxylic acid] | 14 | 3
COc1cccc2c1cc(C#N)n2CCNc1cc(-c2cc(C(F)(F)F)c(C(=O)O)s2)ncn1 [Example 910, 5-{6-[2-(2-Cyano-4-methoxy-indol-1-yl)-ethylamino]-pyrimidin-4-yl}-3-trifluoromethyl-thiophene-2-carboxylic acid] | 10 | 23
N#Cc1cc2c(Cl)cccc2n1CCNc1cc(-c2cc(C(F)(F)F)c(C(=O)O)s2)ncn1 [Example 911, 5-{6-[2-(4-Chloro-2-cyano-indol-1-yl)-ethylamino]-pyrimidin-4-yl}-3-trifluoromethyl-thiophene-2-carboxylic acid] | 27 | 7
N#Cc1cc2c(Cl)cc(F)c(F)c2n1CCNc1cc(-c2cc(C(F)(F)F)c(C(=O)O)s2)ncn1 [Example 912, 5-{6-[2-(4-Chloro-2-cyano-6,7-difluoro-indol-1-yl)-ethylamino]pyrimidin-4-yl}-3-trifluoromethyl-thiophene-2-carboxylic acid] | 29 | 4
COc1ccc(F)c2c1cc(C#N)n2CCNc1cc(-c2cc(Cl)c(C(=O)O)c(OCC(C)C)c2)ncn1 [Example 913, 2-Chloro-4-{6-[2-(2-cyano-7-fluoro-4-methoxy-indol-1-yl)-ethylamino]-pyrimidin-4-yl}-6-isobutoxy-benzoic acid] | 5 | 13
CCOc1cc(-c2cc(NCCn3c(C#N)cc4c(Cl)cc(F)c(F)c43)ncn2)ccc1OCC(=O)O [Example 914, (4-{6-[2-(4-Chloro-2-cyano-6,7-difluoro-indol-1-yl)-ethylamino]-pyrimidin-4-yl}-2-ethoxy-phenoxy)-acetic acid] | 68 | 32
CCOc1cc(-c2cc(NCCn3c(C#N)cc4c(Cl)cccc43)ncn2)ccc1NCC(=O)O [Example 915, (4-{6-[2-(4-Chloro-2-cyano-indol-1-yl)-ethylamino]-pyrimidin-4-yl}-2-ethoxy-phenylamino)-acetic acid] | 27 | 12
CCOc1cc(-c2cc(NCCn3c(C#N)cc4c(Cl)cc(F)c(F)c43)ncn2)ccc1NCC(=O)O [Example 916, (4-{6-[2-(4-Chloro-2-cyano-6,7-difluoro-indol-1-yl)-ethylamino]-pyrimidin-4-yl}-2-ethoxy-phenylamino)-acetic acid] | 18 | 20
COc1ccc(F)c2c1cc(C#N)n2CCNc1cc(-c2ccc(C(=O)O)c(OC(F)F)c2)ncn1 [Example 917, 4-{6-[2-(2-Cyano-7-fluoro-4-methoxy-indol-1-yl)-ethylamino]-pyrimidin-4-yl}-2-difluoromethoxy-benzoic acid] | 35 | 24
COc1n[nH]c2cc(-c3cc(NCCn4c(C#N)cc5c(OC)ccc(F)c54)ncn3)ccc12 [Example 918, 7-Fluoro-4-methoxy-1-{2-[6-(3-methoxy-1H-indazol-6-yl)-pyrimidin-4-ylamino]-ethyl}-1H-indole-2-carbonitrile] | 73 | 26
COc1ccc(F)c2c1cc(C#N)n2CCNc1cc(-c2ccc3c(c2)N(C)C(=O)NC3)ncn1 [Example 919, 7-Fluoro-4-methoxy-1-{2-[6-(1-methyl-2-oxo-1,2,3,4-tetrahydro-quinazolin-7-yl)-pyrimidin-4-ylamino]-ethyl}-1H-indole-2-carbonitrile] | 3 | 10
COc1ccc(F)c2c1cc(C#N)n2CCNc1cc(-c2ccc3c(=O)n(C)[nH]c3c2)ncn1 [Example 920, 7-Fluoro-4-methoxy-1-{2-[6-(2-methyl-3-oxo-2,3-dihydro-1H-indazol-6-yl)-pyrimidin-4-ylamino]-ethyl}-1H-indole-2-carbonitrile] | 68 | 39
COc1ccc(F)c2c1cc(C#N)n2CCNc1cc(-c2ccc3c(=O)[nH]n(C)c3c2)ncn1 [Example 921, 7-Fluoro-4-methoxy-1-{2-[6-(1-methyl-3-oxo-2,3-dihydro-1H-indazol-6-yl)-pyrimidin-4-ylamino]-ethyl}-1H-indole-2-carbonitrile] | 9 | 6
CCSc1cc(C(=O)O)cc(-c2cc(NCCn3c(C#N)cc4c(OC)ccc(F)c43)ncn2)c1 [Example 922, 3-{6-[2-(2-Cyano-7-fluoro-4-methoxy-indol-1-yl)-ethylamino]-pyrimidin-4-yl}-5-ethylsulfanyl-benzoic acid] | 19 | 19
COc1ccc(F)c2c1cc(C#N)n2CCNc1cc(-c2ccc(-c3cnn[nH]3)cc2)ncn1 [Example 923, 7-Fluoro-4-methoxy-1-(2-{6-[4-(3H-[1,2,3]triazol-4-yl)-phenyl]-pyrimidin-4-ylamino}-ethyl)-1H-indole-2-carbonitrile] | 42 | 20
CCOc1cc(-c2cc(NCCn3c(C#N)cc4c(OC)ccc(F)c43)ncn2)ccc1CCC(=O)O [Example 924, 3-(4-{6-[2-(2-Cyano-7-fluoro-4-methoxy-indol-1-yl)-ethylamino]-pyrimidin-4-yl}-2-ethoxy-phenyl)-propionic acid] | 308 | 224
CCOc1cc(OCCC(=O)O)cc(-c2cc(NCCn3c(C#N)cc4c(OC)ccc(F)c43)ncn2)c1 [Example 926, 3-(3-{6-[2-(2-Cyano-7-fluoro-4-methoxy-indol-1-yl)-ethylamino]-pyrimidin-4-yl}-5-ethoxy-phenoxy)-propionic acid] | 20 | 4
CCOc1cc(-c2cc(NCCn3c(C#N)cc4c(OC)ccc(F)c43)ncn2)ccc1OCCC(=O)O [Example 927, 3-(4-{6-[2-(2-Cyano-7-fluoro-4-methoxy-indol-1-yl)-ethylamino]-pyrimidin-4-yl}-2-ethoxy-phenoxy)-propionic acid] | 3 | 31
CCOc1c(C(=O)O)ccc(-c2cc(NCCn3c(C#N)cc4c(OC)ccc(F)c43)ncn2)c1F [Example 928, 4-{6-[2-(2-Cyano-7-fluoro-4-methoxy-indol-1-yl)-ethylamino]-pyrimidin-4-yl}-2-ethoxy-3-fluoro-benzoic acid] | 45 | 37
CCOc1cc(-c2cc(NCCn3c(C#N)cc4c(OC)ccc(F)c43)ncn2)ccc1S(N)(=O)=O [Example 929, 4-{6-[2-(2-Cyano-7-fluoro-4-methoxy-indol-1-yl)-ethylamino]-pyrimidin-4-yl}-2-ethoxy-benzenesulfonamide] | 33 | 20
CCOc1cc(-c2cc(NCCn3c(C#N)cc4c(OC)ccc(F)c43)ncn2)ccc1-c1cnn[nH]1 [Example 930, 1-(2-{6-[3-Ethoxy-4-(3H-[1,2,3]triazol-4-yl)-phenyl]-pyrimidin-4-ylamino}-ethyl)-7-fluoro-4-methoxy-1H-indole-2-carbonitrile] | 2 | 4
CCOc1cc(-c2cc(NCCn3c(C#N)cc4c(OC)ccc(F)c43)ncn2)sc1CCC(=O)O [Example 932, 3-(5-{6-[2-(2-Cyano-7-fluoro-4-methoxy-indol-1-yl)-ethylamino]-pyrimidin-4-yl}-3-ethoxy-thiophen-2-yl)-propionic acid] | 3 | 14
COc1ccc(F)c2c1cc(C#N)n2CCNc1cc(-c2ccc(-c3c(O)c(=O)c3=O)cc2)ncn1 [Example 933, 7-Fluoro-1-(2-{6-[4-(2-hydroxy-3,4-dioxo-cyclobut-1-enyl)-phenyl]-pyrimidin-4-ylamino}-ethyl)-4-methoxy-1H-indole-2-carbonitrile] | 4 | 12
CCOc1cc(-c2cc(NCCn3c(C#N)cc4c(OC)ccc(F)c43)ncn2)ccc1C(=O)C(=O)O [Example 934, (4-{6-[2-(2-Cyano-7-fluoro-4-methoxy-indol-1-yl)-ethylamino]-pyrimidin-4-yl}-2-ethoxy-phenyl)-oxo-acetic acid] | 31 | 16
CCCSc1cc(-c2cc(NCCn3c(C#N)cc4c(OC)ccc(F)c43)ncn2)ccc1C(=O)O [Example 935, 4-{6-[2-(2-Cyano-7-fluoro-4-methoxy-indol-1-yl)-ethylamino]-pyrimidin-4-yl}-2-propylsulfanyl-benzoic acid] | 4 | 7
CCCSc1cc(-c2cc(NCCn3c(C#N)cc4c(OC)cc(F)cc43)ncn2)ccc1C(=O)O [Example 936, 4-{6-[2-(2-Cyano-6-fluoro-4-methoxy-indol-1-yl)-ethylamino]-pyrimidin-4-yl}-2-propylsulfanyl-benzoic acid] | 8 | 18
COc1ccc(F)c2c1cc(C#N)n2CCNc1cc(-c2ccc(C(=O)O)c(SC(C)C)c2)ncn1 [Example 937, 4-{6-[2-(2-Cyano-7-fluoro-4-methoxy-indol-1-yl)-ethylamino]-pyrimidin-4-yl}-2-isopropylsulfanyl-benzoic acid] | 13 | 21
COc1cc(F)cc2c1cc(C#N)n2CCNc1cc(-c2ccc(C(=O)O)c(SC(C)C)c2)ncn1 [Example 938, 4-{6-[2-(2-Cyano-6-fluoro-4-methoxy-indol-1-yl)-ethylamino]-pyrimidin-4-yl}-2-isopropylsulfanyl-benzoic acid] | 29 | 38
CCCc1cc(-c2cc(NCCn3c(C#N)cc4c(OC)ccc(F)c43)ncn2)cc(F)c1C(=O)O [Example 939, 4-{6-[2-(2-Cyano-7-fluoro-4-methoxy-indol-1-yl)-ethylamino]-pyrimidin-4-yl}-2-fluoro-6-propyl-benzoic acid] | 17 | 15

Source: US12011444B2, “N-substituted indole derivatives as PGE2 receptor modulators” (Idorsia Pharmaceuticals Ltd, priority 2015, dated 2024)
